# Experimental data from PubChem BioAssay (NCI).
#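 Five concentrations, 48 hours, 96-well plates. At the GI50, growth is halved. TGI: concentration producing complete growth inhibition.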
# Tests used:
# Assay in all cases: NCI anticancer screen, dose series, 48 h
# [1] = tested on: MDA-MB-468 breast
# [2] = tested on: SF-295 CNS
# [3] = tested on: MDA-MB-231 breast
# [4] = tested on: SNB-19 CNS
# [5] = tested on: 786-0 renal
# [6] = tested on: OVCAR-3 ovarian
# [7] = tested on: CAKI-1 renal
# [8] = tested on: NCI/ADR-RES ovarian
# [9] = tested on: RXF 393 renal
# [10] = tested on: OVCAR-8 ovarian
# [11] = tested on: DU-145 prostate
# [12] = tested on: HCC-2998 colon
# [13] = tested on: TK-10 renal
# [14] = tested on: MCF7 breast
# [15] = tested on: HOP-62 NSCLC
# [16] = tested on: HT29 colon
# [17] = tested on: SK-OV-3 ovarian
# [18] = tested on: EKVX NSCLC
# [19] = tested on: MOLT-4 leukemia
# [20] = tested on: SK-MEL-5 melanoma
# [21] = tested on: SW-620 colon
# [22] = tested on: UO-31 renal
# [23] = tested on: KM12 colon
# [24] = tested on: A549 NSCLC
# [25] = tested on: OVCAR-5 ovarian
# [26] = tested on: HCT-15 colon
# [27] = tested on: M14 melanoma
# [28] = tested on: CCRF-CEM leukemia
# [29] = tested on: NCI-H522 lung
# [30] = tested on: UACC-257 melanoma
# [31] = tested on: NCI-H23 lung
# [32] = tested on: MDA-MB-435
# [33] = tested on: NCI-H460 lung
# [34] = tested on: UACC-62 melanoma
# [35] = tested on: NCI-H226 lung
# [36] = tested on: K-562 leukemia
# [37] = tested on: PC-3 prostate
# [38] = tested on: HOP-92 NSCLC
# [39] = tested on: MALME-3M melanoma
# [40] = tested on: U251 CNS
# [41] = tested on: SF-539 CNS
# [42] = tested on: SNB-75 CNS
# [43] = tested on: SK-MEL-2 melanoma
# [44] = tested on: SF-268 CNS
# [45] = tested on: SN12C renal
# [46] = tested on: OVCAR-4 ovarian
# [47] = tested on: LOX IMVI melanoma
# [48] = tested on: A498 renal
# [49] = tested on: HS 578T breast
# [50] = tested on: COLO 205 colon
# [51] = tested on: SK-MEL-28 melanoma
# [52] = tested on: HCT-116 colon
# [53] = tested on: IGROV1 ovarian
# [54] = tested on: ACHN renal
# [55] = tested on: BT-549 breast
# [56] = tested on: HL-60(TB) leukemia
# [57] = tested on: RPMI-8226 leukemia
# [58] = tested on: T-47D breast
# [59] = tested on: SR leukemia
smiles,measurement,setting,value
CCCCSc1nc(Nc2ccc(/C(C)=N/NC(N)=S)cc2)c(C#N)c(-c2ccc(OC)cc2)n1,GI50,[1],18.1 µM
same,TGI,[1],49.1 µM
same,GI50,[2],10.1 µM
same,TGI,[2],22.6 µM
same,GI50,[3],2.27 µM
same,TGI,[3],8.21 µM
same,GI50,[4],14.3 µM
same,TGI,[4],27.3 µM
same,GI50,[5],3.07 µM
same,TGI,[5],10.9 µM
same,GI50,[6],21.5 µM
same,TGI,[6],44.3 µM
same,GI50,[7],18.3 µM
same,TGI,[7],54.1 µM
same,GI50,[8],5.76 µM
same,TGI,[8],> 100 µM
same,GI50,[9],5.2 µM
same,TGI,[9],18.1 µM
same,GI50,[10],10.8 µM
same,TGI,[10],24 µM
same,GI50,[11],10.2 µM
same,TGI,[11],> 100 µM
same,GI50,[12],78.4 µM
same,TGI,[12],> 100 µM
same,GI50,[13],13.8 µM
same,TGI,[13],27.4 µM
same,GI50,[14],17.1 µM
same,TGI,[14],> 100 µM
same,GI50,[15],15.6 µM
same,TGI,[15],30.1 µM
same,GI50,[16],> 100 µM
same,TGI,[16],> 100 µM
same,GI50,[17],18 µM
same,TGI,[17],32.1 µM
same,GI50,[18],56.4 µM
same,TGI,[18],> 100 µM
same,GI50,[19],> 100 µM
same,TGI,[19],> 100 µM
same,GI50,[20],3.61 µM
same,TGI,[20],17 µM
same,GI50,[21],> 100 µM
same,TGI,[21],> 100 µM
same,GI50,[22],2.81 µM
same,TGI,[22],18.6 µM
same,GI50,[23],> 100 µM
same,TGI,[23],> 100 µM
same,GI50,[24],16.5 µM
same,TGI,[24],40.9 µM
same,GI50,[25],28.1 µM
same,TGI,[25],93.9 µM
same,GI50,[26],> 100 µM
same,TGI,[26],> 100 µM
same,GI50,[27],8.52 µM
same,TGI,[27],> 100 µM
same,GI50,[28],> 100 µM
same,TGI,[28],> 100 µM
same,GI50,[29],13.9 µM
same,TGI,[29],28.6 µM
same,GI50,[30],> 100 µM
same,TGI,[30],> 100 µM
same,GI50,[31],6.46 µM
same,TGI,[31],19 µM
same,GI50,[32],36.9 µM
same,TGI,[32],> 100 µM
same,GI50,[33],9.33 µM
same,TGI,[33],31.1 µM
same,GI50,[34],15.6 µM
same,TGI,[34],34.1 µM
same,GI50,[35],11.9 µM
same,TGI,[35],27.5 µM
same,GI50,[36],> 100 µM
same,TGI,[36],> 100 µM
same,GI50,[37],> 100 µM
same,TGI,[37],> 100 µM
same,GI50,[38],5.36 µM
same,TGI,[38],21.1 µM
same,GI50,[39],5.85 µM
same,TGI,[39],20 µM
same,GI50,[40],6.88 µM
same,TGI,[40],19.9 µM
same,GI50,[41],3.14 µM
same,TGI,[41],12.8 µM
same,GI50,[42],10.4 µM
same,TGI,[42],78.3 µM
same,GI50,[43],26.3 µM
same,TGI,[43],85.4 µM
same,GI50,[44],26 µM
same,TGI,[44],> 100 µM
same,GI50,[45],18.7 µM
same,TGI,[45],37 µM
same,GI50,[46],6.45 µM
same,TGI,[46],62.4 µM
same,GI50,[47],3.9 µM
same,TGI,[47],17.9 µM
same,GI50,[48],10.6 µM
same,TGI,[48],22.4 µM
same,GI50,[49],2.78 µM
same,TGI,[49],16.4 µM
same,GI50,[50],> 100 µM
same,TGI,[50],> 100 µM
same,GI50,[51],35.8 µM
same,TGI,[51],> 100 µM
same,GI50,[52],6.79 µM
same,TGI,[52],30 µM
same,GI50,[53],19.5 µM
same,TGI,[53],40 µM
same,GI50,[54],15.3 µM
same,TGI,[54],28.5 µM
same,GI50,[55],6.55 µM
same,TGI,[55],26.9 µM
same,GI50,[56],> 100 µM
same,TGI,[56],> 100 µM
same,GI50,[57],45.7 µM
same,TGI,[57],> 100 µM
same,GI50,[58],12.5 µM
same,TGI,[58],36.7 µM
same,GI50,[59],57.1 µM
same,TGI,[59],> 100 µM
